Key:
rabbit [1] = settings: Prenatal developmental toxicity study, other, Oral, Gavage/Intubation, dose end: 18 GD
rat [2] = settings: Subchronic oral toxicity in rodents, fischer, Feed, dose end: 90 day, group: systemic, systemic / pathology microscopic / stomach / erosion + systemic / pathology microscopic / stomach / hyperkeratosis + systemic / pathology …
rat [3] = settings: Prenatal developmental toxicity study, sprague dawley, Oral, Gavage/Intubation, dose end: 15 GD
rat [4] = settings: Developmental neurotoxicity study; sprague dawley; Injection; Intraperitoneal; dose end: 112 PND; group: cannot be grouped; developmental / developmental malformation / bone / kinked + developmental / offspring survival late / [other] / [other] + reproductive / …
rat [5] = settings: Combined chronic toxicity/carcinogenicity, sprague dawley, Oral, Feed, dose end: 2 year, group: systemic
rat [6] = settings: Subchronic oral toxicity in rodents, sprague dawley, Feed, dose end: 13 week, group: systemic, systemic / in life observation / body weight / body weight gain + systemic / organ weight / kidney / relative to body weight
mouse = settings: Carcinogenicity, cd1, Oral, Feed, dose end: 18 month, group: systemic
dog [7] = settings: Chronic toxicity, beagle, Oral, Capsule, dose end: 52 week, group: systemic
dog [8] = settings: Subchronic oral toxicity in nonrodent, beagle, Capsule, dose end: 13 week, group: systemic
rat [9] = settings: Multigenerational reproductive toxicity study, sprague dawley, Oral, Feed, dose end: 2 generation
rabbit [10] = settings: Prenatal developmental toxicity study, new zealand white, Oral, Gavage/Intubation, dose end: 19 GD
[11] = group: developmental, developmental / developmental malformation / bone / branched + developmental / developmental malformation / bone / full supernumerary
[12] = group: maternal, systemic / in life observation / body weight / body weight gain + systemic / in life observation / food consumption / food consumption
[13] = group: developmental, developmental / developmental malformation / bone / [other] + developmental / developmental malformation / kidney / dilated renal pelvis + …
[14] = group: maternal, systemic / in life observation / body weight / body weight gain + systemic / in life observation / food consumption / food consumption + …
[15] = systemic / pathology gross / liver / foci
[16] = systemic / in life observation / mortality / mortality + systemic / pathology microscopic / bone marrow / hyperplasia + systemic / pathology…
[17] = systemic / organ weight / brain / relative to body weight
[18] = systemic / pathology microscopic / liver / pigmentation + systemic / hematology / erythrocyte (rbc) count differential / erythrocyte (rbc…
[19] = systemic / pathology microscopic / liver / pigmentation + systemic / pathology microscopic / epididymis / inflammation + systemic / …
[20] = systemic / pathology microscopic / thymus / involution + systemic / clinical chemistry / alanine aminotransferase (alt/sgpt) / alanine …
[21] = systemic / pathology microscopic / thymus / involution + systemic / pathology microscopic / epididymis / reduced spermatogenesis + systemic…
[22] = group: offspring, developmental / offspring survival late / viability index / viability index + developmental / offspring survival late / lactation index / …
[23] = group: offspring, developmental / offspring survival late / viability index / viability index + systemic / in life observation / body weight / offspring (pup…
[24] = group: parental, systemic / in life observation / body weight / body weight + systemic / in life observation / body weight / body weight gain + systemic / …
[25] = group: developmental, developmental / developmental malformation / bone / unossified + developmental / developmental malformation / brain / hydrocephalus + …
[26] = group: maternal, reproductive / reproductive performance / aborted / aborted + systemic / in life observation / body weight / body weight gain + systemic / …

What does the source list for `CC(C)C1CCC(Cc2ccc(Cl)cc2)C1(O)Cn1cncn1` (stereo not given) [Ipconazole]?
LEL (rabbit [1]; [11]): 50 mg/kg/day; LOAEL (rabbit [1]; [11]): 50 mg/kg/day; NEL (rabbit [1]; [11]): 10 mg/kg/day; NOAEL (rabbit [1]; [11]): 10 mg/kg/day; LEL (rabbit [1]; [12]): 50 mg/kg/day; LOAEL (rabbit [1]; [12]): 50 mg/kg/day; NEL (rabbit [1]; [12]): 10 mg/kg/day; NOAEL (rabbit [1]; [12]): 10 mg/kg/day; LEL (rat [2]): 29.9 mg/kg/day; LOAEL (rat [2]): 29.9 mg/kg/day; NEL (rat [2]): 7.22 mg/kg/day; NOAEL (rat [2]): 7.22 mg/kg/day; LEL (rat [3]; [13]): 30 mg/kg/day; LOAEL (rat [3]; [13]): 30 mg/kg/day; NEL (rat [3]; [13]): 10 mg/kg/day; NOAEL (rat [3]; [13]): 10 mg/kg/day; LOAEL (rat [3]; [12]): 30 mg/kg/day; LEL (rat [3]; [14]): 30 mg/kg/day; NEL (rat [3]; [14]): 10 mg/kg/day; NOAEL (rat [3]; [14]): 10 mg/kg/day

With `O=c1[nH]c(=O)n([C@H]2C[C@H](O)[C@@H](CO)O2)cc1Br` [5-Bromo-2'-deoxyuridine] as the molecule, how does the LEL (rat [4]) read?
Its LEL is 50 mg/kg/day.

And the LOAEL (rat [4])?
The LOAEL was over 100 mg/kg/day.

And the NEL (rat [4])?
Its NEL is under 50 mg/kg/day.

What about the NOAEL (rat [4]) of the same molecule?
Its NOAEL is at least 100 mg/kg/day.

Which LOAEL (rat [5]; systemic / in life observation / clinical signs / urine, discoloration + systemic / pathology gross / lung / foci + systemic / pathology …) does the source give for `CCc1c(C(=O)[O-])c(=O)cnn1-c1ccc(Cl)cc1.[K+]` [Clofencet-potassium] here?
The LOAEL was 470 mg/kg/day.

What about the LEL (rat [5]; [15]) of the same molecule?
The LEL was 4.7 mg/kg/day.

And the NEL (rat [5]; [15])?
Its NEL is under 4.7 mg/kg/day.

What about the NOAEL (rat [5]; systemic / pathology gross / liver / foci + systemic / in life observation / clinical signs / urine, discoloration + systemic / pathology …) of the same molecule?
The NOAEL was 47 mg/kg/day.

And the LEL (rat [6])?
Its LEL is 1480 mg/kg/day.

And the LOAEL (rat [6])?
Its LOAEL is 1480 mg/kg/day.

And the NEL (rat [6])?
The NEL was 373 mg/kg/day.

And the NOAEL (rat [6])?
Its NOAEL is 373 mg/kg/day.

And the LOAEL (mouse; [16])?
The LOAEL was 1230 mg/kg/day.

What about the NOAEL (mouse; [16]) of the same molecule?
The NOAEL was 501 mg/kg/day.

What about the LEL (mouse; [17]) of the same molecule?
Its LEL is 11.4 mg/kg/day.

And the NEL (mouse; [17])?
Its NEL is under 11.4 mg/kg/day.

What about the NEL (dog [7]; [18]) of the same molecule?
Its NEL is 5 mg/kg/day.

What about the NOAEL (dog [7]; [18]) of the same molecule?
The NOAEL was 5 mg/kg/day.

What about the LEL (dog [7]; [19]) of the same molecule?
The LEL was 30 mg/kg/day.

And the LOAEL (dog [7]; [19])?
Its LOAEL is 30 mg/kg/day.

And the NEL (dog [8]; [20])?
Its NEL is 50 mg/kg/day.

And the NOAEL (dog [8]; [20])?
Its NOAEL is 50 mg/kg/day.

What about the LEL (dog [8]; [21]) of the same molecule?
Its LEL is 200 mg/kg/day.

And the LOAEL (dog [8]; [21])?
The LOAEL was 200 mg/kg/day.

What about the LEL (rat [9]; [22]) of the same molecule?
The LEL was 393 mg/kg/day.

What about the LOAEL (rat [9]; [22]) of the same molecule?
The LOAEL was 393 mg/kg/day.

And the NEL (rat [9]; [23])?
The NEL was 38 mg/kg/day.

And the NOAEL (rat [9]; [23])?
Its NOAEL is 38 mg/kg/day.

What about the LEL (rat [9]; [24]) of the same molecule?
Its LEL is 1600 mg/kg/day.

And the LOAEL (rat [9]; [24])?
The LOAEL was 1600 mg/kg/day.

What about the NEL (rat [9]; [24]) of the same molecule?
Its NEL is 393 mg/kg/day.

And the NOAEL (rat [9]; [24])?
Its NOAEL is 393 mg/kg/day.

And the LEL (rabbit [10]; [25])?
Its LEL is 500 mg/kg/day.

What about the LOAEL (rabbit [10]; [25]) of the same molecule?
Its LOAEL is 500 mg/kg/day.

What about the NEL (rabbit [10]; [25]) of the same molecule?
The NEL was 150 mg/kg/day.

What about the NOAEL (rabbit [10]; [25]) of the same molecule?
The NOAEL was 150 mg/kg/day.

And the LEL (rabbit [10]; [26])?
The LEL was 500 mg/kg/day.

And the LOAEL (rabbit [10]; [26])?
Its LOAEL is 500 mg/kg/day.

What about the NEL (rabbit [10]; [26]) of the same molecule?
Its NEL is 150 mg/kg/day.

What about the NOAEL (rabbit [10]; [26]) of the same molecule?
The NOAEL was 150 mg/kg/day.
